Patent US20240180872A1, “METHODS AND COMPOUNDS OF CANNABIDIOL, MELATONIN AND AKBA FOR TREATING PANCREATIC CANCER” (priority 2021, published 2024)

Test system: PANC-1 cells
Experiment: Nude mice orthotopic pancreatic tumor model
Type: in vivo, Athymic Nude-Foxn1nu mice
Settings: after 30 days of treatment, GEM 50 mg/kg, MLT 400 mg/kg, CBD 10 mg/kg
Source text: Species and strain: Athymic Nude-Foxn1nu mice.
PANC-1 cells were thawed and cultured in DMEM (Dulbecco's Modified Eagle Medium) +2% L-glutamine +10% FBS (Fetal Bovine Serum), Penicillin/Streptomycin and maintain the cell culture in 100 mm Petri dish (Sarstedt, Germany).
A period of acclimation (at least 5 days) was allowed to mice before tumor inoculation. Before the inoculum, PANC-1 cells were detached with trypsin, counted with trypan blue and for each inoculum, 1×10^6 cells were suspended in 20 ul of PBS. Mice (n=20) were anesthetized with isoflurane (induction at 4% and maintenance at 2%) and cell solutions (20 μL, 1×10^6 cells) were orthotopically injected into the tail of the pancreas exploiting the echo-guided procedure. The 20 animals inoculated with tumor cells were divided in 4 groups (Table 6) when tumor size reaches a volume of approximately 20-30 mm^3 (tumor size was determined by ultrasound imaging analysis).
The animals were inoculated with 1×10^6 PANC-1 cells with VevoLAZR-X system by using echo-guided injection method. All animals were treated every three days for 30 days starting when tumor reached the volume of approximately 30 mm^3 (around 10-15 days from the inoculum). […]
Tumor volume was analyzed by using Vevo Lab software (Fujifilm Visualsonics).

For `Nc1ccn([C@@H]2O[C@H](CO)[C@@H](O)C2(F)F)c(=O)n1` [GEM, Gemcitabine], the tumor volumes (IP every three days, Vehicle 630,8) was 111,1 and the “effect on tumor volume” value (IP) was “high effect”.
